In one data set the target is T1, Pyk2 (Homo sapiens, UniProt Q14289).
T1 construct: purchased Promega V4083
The data set can be described thus: ADP-Glo Kinase Assay, Pyk2. Format: biochemical. Particulars: ADP-Glo Kinase Assay Kit. The protocol: (§1) Briefly, a kinase test was performed and quantified according to the manufacturer's instructions after treating the adamantane derivative compound of the present invention by using the ADP-Glo™ Kinase Assay Kit (FAK, Promega, V1971; Pyk2, Promega, V4083; InsR, Promega, V9401) containing each kinase of Promega.

For another data set, the target named is T2, InsR (Homo sapiens, UniProt P06213).
T2 construct: purchased Promega V9401
T2 sequence (P06213 28-1382): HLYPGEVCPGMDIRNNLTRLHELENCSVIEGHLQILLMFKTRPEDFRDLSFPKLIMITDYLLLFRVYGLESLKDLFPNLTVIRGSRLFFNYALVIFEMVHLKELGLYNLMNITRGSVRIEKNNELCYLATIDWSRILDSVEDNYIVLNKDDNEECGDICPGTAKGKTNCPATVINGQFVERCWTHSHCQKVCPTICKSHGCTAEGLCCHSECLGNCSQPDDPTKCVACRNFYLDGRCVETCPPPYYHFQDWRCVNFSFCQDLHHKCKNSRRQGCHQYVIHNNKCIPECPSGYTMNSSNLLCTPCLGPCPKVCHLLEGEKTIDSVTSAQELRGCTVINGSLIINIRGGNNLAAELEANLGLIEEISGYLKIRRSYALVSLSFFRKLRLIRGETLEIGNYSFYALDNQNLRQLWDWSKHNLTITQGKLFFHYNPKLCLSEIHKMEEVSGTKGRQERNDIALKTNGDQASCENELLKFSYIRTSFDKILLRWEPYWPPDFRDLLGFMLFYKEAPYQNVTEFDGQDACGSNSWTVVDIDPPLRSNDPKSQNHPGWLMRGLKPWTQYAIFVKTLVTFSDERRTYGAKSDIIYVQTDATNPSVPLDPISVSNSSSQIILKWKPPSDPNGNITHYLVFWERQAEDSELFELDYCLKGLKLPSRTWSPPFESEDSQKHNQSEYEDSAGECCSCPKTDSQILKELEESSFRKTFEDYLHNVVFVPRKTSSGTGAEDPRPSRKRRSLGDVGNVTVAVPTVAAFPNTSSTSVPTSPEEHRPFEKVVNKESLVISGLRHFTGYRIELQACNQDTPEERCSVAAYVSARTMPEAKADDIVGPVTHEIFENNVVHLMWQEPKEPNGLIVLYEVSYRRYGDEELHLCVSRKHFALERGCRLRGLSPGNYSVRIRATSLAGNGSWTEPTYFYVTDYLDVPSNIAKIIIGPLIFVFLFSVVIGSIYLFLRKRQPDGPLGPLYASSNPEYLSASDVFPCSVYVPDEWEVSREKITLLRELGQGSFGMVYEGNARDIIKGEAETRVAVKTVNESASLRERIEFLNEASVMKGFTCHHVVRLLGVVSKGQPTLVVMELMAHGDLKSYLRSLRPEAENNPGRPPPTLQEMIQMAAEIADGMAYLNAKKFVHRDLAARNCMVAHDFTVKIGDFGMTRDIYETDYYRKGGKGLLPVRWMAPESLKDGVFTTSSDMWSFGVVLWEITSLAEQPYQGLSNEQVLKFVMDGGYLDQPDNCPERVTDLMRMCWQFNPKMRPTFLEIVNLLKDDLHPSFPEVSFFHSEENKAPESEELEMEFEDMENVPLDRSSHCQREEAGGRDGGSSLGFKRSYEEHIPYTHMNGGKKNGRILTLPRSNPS
The experiment in a line: ADP-Glo Kinase Assay, InsR. Format: biochemical. Particulars: ADP-Glo Kinase Assay Kit. The method, then: as §1
(In ADP-Glo the light output rises with the ADP produced.)

In data set [1] the target is T3, FAK (Homo sapiens, UniProt Q05397). The experiment in a line: ADP-Glo Kinase Assay, FAK. Format: biochemical. Also noted: purchased Promega V1971. Particulars: ADP-Glo Kinase Assay Kit. The method, then:
as §1

Data set [2] has as its target T3, FAK. The experiment in a line: FAK [pY397] ELISA in MDA-MB-231 cells. Format: cell-based. On the set-up: endogenous in cells; host or cells: MDA-MB-231. Particulars: MDA-MB-231, treated for one hour, Table 2; read-out: FAK inhibitory activity (IC50). The protocol: Briefly, an enzyme-linked immunosorbent assay test was performed according to the manufacturer's instructions by using the FAK (Phospho) [pY397] Human ELISA Kit (Thermo Fisher Scientific, KH00441) after dispensing 1×10^6 MDA-MB-231 cells into each well of a 6-well plate, inducing cell stabilization for 24 hours, and treating each compound at different concentrations (o, 1, 5, 10, 50, 100, 500, 1000 nM) for one hour.
A general note: ELISA stands for enzyme-linked immunosorbent assay.

The conditions of data set [3]: preclinical study; cited from earlier work.

T1 sequence (Q14289 whole entry): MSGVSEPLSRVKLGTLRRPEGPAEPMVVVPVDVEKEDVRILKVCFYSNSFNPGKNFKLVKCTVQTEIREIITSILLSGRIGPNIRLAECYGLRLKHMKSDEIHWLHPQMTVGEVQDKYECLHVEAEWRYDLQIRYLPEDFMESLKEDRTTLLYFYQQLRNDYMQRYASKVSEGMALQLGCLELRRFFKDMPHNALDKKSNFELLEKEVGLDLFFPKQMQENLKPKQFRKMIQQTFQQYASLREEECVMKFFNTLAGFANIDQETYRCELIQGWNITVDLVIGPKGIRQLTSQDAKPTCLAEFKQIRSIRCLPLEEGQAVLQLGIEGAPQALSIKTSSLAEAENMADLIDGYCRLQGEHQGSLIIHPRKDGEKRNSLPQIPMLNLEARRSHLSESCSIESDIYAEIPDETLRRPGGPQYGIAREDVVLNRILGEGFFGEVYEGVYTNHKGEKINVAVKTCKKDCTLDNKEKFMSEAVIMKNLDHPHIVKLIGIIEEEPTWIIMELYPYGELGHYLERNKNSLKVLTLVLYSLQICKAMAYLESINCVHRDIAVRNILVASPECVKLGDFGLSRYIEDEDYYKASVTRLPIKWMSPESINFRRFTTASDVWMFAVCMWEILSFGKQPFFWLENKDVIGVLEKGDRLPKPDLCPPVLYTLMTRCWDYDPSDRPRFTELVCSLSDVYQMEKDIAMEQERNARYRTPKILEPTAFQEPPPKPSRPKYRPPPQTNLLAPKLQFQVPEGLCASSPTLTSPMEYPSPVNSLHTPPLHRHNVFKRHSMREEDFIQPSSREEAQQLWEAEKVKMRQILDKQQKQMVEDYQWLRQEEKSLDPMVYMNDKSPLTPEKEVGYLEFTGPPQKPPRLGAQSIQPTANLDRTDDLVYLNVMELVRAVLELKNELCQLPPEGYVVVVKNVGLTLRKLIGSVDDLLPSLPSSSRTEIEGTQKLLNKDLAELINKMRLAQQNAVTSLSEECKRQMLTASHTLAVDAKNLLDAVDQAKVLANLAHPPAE
T3 sequence (Q05397 whole entry): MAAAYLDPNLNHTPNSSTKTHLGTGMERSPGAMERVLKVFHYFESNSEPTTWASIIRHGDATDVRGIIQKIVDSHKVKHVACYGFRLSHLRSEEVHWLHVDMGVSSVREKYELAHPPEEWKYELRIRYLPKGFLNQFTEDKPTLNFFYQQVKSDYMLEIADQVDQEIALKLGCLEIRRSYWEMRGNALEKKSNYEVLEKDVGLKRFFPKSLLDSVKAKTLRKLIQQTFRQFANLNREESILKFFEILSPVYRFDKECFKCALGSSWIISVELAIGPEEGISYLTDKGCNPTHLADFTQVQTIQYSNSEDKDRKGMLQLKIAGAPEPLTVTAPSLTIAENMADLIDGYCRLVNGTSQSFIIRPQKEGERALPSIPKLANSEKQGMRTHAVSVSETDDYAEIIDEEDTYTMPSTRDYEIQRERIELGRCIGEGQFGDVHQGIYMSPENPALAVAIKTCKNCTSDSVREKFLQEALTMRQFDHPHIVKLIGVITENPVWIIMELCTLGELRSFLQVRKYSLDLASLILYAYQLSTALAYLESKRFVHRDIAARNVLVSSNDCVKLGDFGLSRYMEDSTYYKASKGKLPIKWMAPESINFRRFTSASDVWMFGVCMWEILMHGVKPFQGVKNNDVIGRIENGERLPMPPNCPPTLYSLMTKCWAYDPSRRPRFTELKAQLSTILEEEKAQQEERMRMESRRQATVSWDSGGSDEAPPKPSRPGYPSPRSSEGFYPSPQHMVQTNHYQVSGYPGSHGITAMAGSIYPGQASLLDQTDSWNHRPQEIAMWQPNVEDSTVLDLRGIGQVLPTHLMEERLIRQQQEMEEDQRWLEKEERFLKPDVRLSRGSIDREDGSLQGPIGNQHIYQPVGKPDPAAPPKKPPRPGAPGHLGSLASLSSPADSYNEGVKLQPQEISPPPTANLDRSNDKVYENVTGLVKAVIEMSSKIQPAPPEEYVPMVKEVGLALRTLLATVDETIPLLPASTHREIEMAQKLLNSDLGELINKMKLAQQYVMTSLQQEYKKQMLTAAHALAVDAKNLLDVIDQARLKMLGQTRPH

Consider `CNC(=O)c1cccc(C)c1Nc1nc(Nc2ccc(NC3CCN(C4C5CC6CC(C5)CC4C6)CC3)cc2OC)ncc1C(F)(F)F` (centres unmarked) [Compound 6, 2-((2-((4-((1-(adamantan-2-yl)piperidin-4-yl)amino)-2-methoxyphenyl)amino)-5-(trifluoromethyl)pyrimidin-4-yl)amino)-N,3-dimethylbenzamide], for which the IC50 (usually the concentration that gives 50% inhibition) on Pyk2 was 157 nM; against InsR it was greater than 10 µM; against FAK [1] it was 96.5 nM; on FAK [2], 118 nM.
On to `CNC(=O)c1cccc(C)c1Nc1nc(Nc2ccc(N[C@H]3C4CC5CC3C[C@](O)(C5)C4)cc2OC)ncc1C(F)(F)F` [Compound 1, 2-((2-((4-(((trans)-5-hydroxyadamantan-2-yl)amino)-2-methoxyphenyl)amino)-5-(trifluoromethyl)pyrimidin-4-yl)amino)-N,3-dimethylbenzamide], for which the IC50 against Pyk2 is 124 nM; at InsR, greater than 10 µM; on FAK [1] it was 82.9 nM; on FAK [2], 83 nM.
The corresponding values for `CNC(=O)c1cccc(C)c1Nc1nc(Nc2ccc(OC34CC5CC(C3)C(O)C(C5)C4)cc2OC)ncc1C(F)(F)F` (centres unmarked) [Compound 11, 2-((2-((4-((4-hydroxyadamantan-1-yl)oxy)-2-methoxyphenyl)amino)-5-(trifluoromethyl)pyrimidin-4-yl)amino)-N,3-dimethylbenzamide] are 231 nM, greater than 10 µM, 65.1 nM and 118 nM.
The matching figures for `CNC(=O)c1cccc(C)c1Nc1nc(Nc2ccc(N3CCN(C4C5CC6CC(C5)CC4C6)CC3)cc2OC)ncc1C(F)(F)F` (centres unmarked) [Compound 3, 2-((2-((4-(4-(adamantan-2-yl)piperazin-1-yl)-2-methoxyphenyl)amino)-5-(trifluoromethyl)pyrimidin-4-yl)amino)-N,3-dimethylbenzamide]: 256 nM, greater than 10 µM, 154 nM and 92 nM.
The matching figures for `CNC(=O)c1cccc(C)c1Nc1nc(Nc2ccc(NC(=O)C34CC5CC(C3)C(N3CCOCC3)C(C5)C4)cc2OC)ncc1C(F)(F)F` (centres unmarked) [Compound 25, N-(3-methoxy-4-((4-((2-methyl-6-(methylcarbamoyl)phenyl)amino)-5-(trifluoromethyl)pyrimidin-2-yl)amino)phenyl)-4-morpholinoadamantan-1-carboxamide]: 90.6 nM, greater than 10 µM, 45.5 nM and 27 nM.
As to `CNC(=O)c1ccccc1Nc1nc(Nc2ccc(N3CCOCC3)cc2OC)ncc1Cl` [TAE226], the side effects result in data set [3] was “serious side effects such as unexpected inhibition of glucose metabolism, a decrease in blood concentration”.
Take `CNC(=O)c1cccc(C)c1Nc1nc(Nc2ccc(NC3CCN([C@H]4C5CC6CC4C[C@@](O)(C6)C5)CC3)cc2OC)ncc1C(F)(F)F` [Compound 8, 2-((2-((4-((1-((cis)-5-hydroxyadamantan-2-yl)piperidin-4-yl)amino)-2-methoxyphenyl)amino)-5-(trifluoromethyl)pyrimidin-4-yl)amino)-N,3-dimethylbenzamide]: the IC50 against InsR was greater than 10 µM; on FAK [1], 53.3 nM; at FAK [2], 121 nM.
Take `CNC(=O)c1cccc(C)c1Nc1nc(Nc2ccc(NC(=O)[C@]34CC5CC(C3)[C@@H](N3CC[C@H](NC(C)=O)C3)C(C5)C4)cc2OC)ncc1C(F)(F)F` [Compound 27, (trans)-4-((S)-3-acetamidopyrrolidin-1-yl)-N-(3-methoxy-4-((4-((2-methyl-6-(methylcarbamoyl)phenyl)amino)-5-(trifluoromethyl)pyrimidin-2-yl)amino)phenyl) adamantan-1-carboxamide]: the IC50 is 81.4 nM against Pyk2, greater than 10 µM at InsR, 39.5 nM against FAK [1] and 55 nM at FAK [2].
For `CNC(=O)c1cccc(C)c1Nc1nc(Nc2ccc(OC34CC5CC(C3)C(=O)C(C5)C4)cc2OC)ncc1C(F)(F)F` [Compound 10, 2-((2-((2-methoxy-4-((4-oxoadamantan-1-yl)oxy)phenyl)amino)-5-(trifluoromethyl)pyrimidin-4-yl)amino)-N,3-dimethylbenzamide], the IC50 is greater than 10 µM against InsR, 96.7 nM on FAK [1] and 382 nM on FAK [2].
On to `CNC(=O)c1cccc(C)c1Nc1nc(Nc2ccc(NC3CCN([C@H]4C5CC6CC4C[C@](O)(C6)C5)CC3)cc2OC)ncc1C(F)(F)F` [Compound 7, 2-((2-((4-((1-((trans)-5-hydroxyadamantan-2-yl)piperidin-4-yl)amino)-2-methoxyphenyl)amino)-5-(trifluoromethyl)pyrimidin-4-yl)amino)-N,3-dimethylbenzamide], for which the IC50 against Pyk2 worked out at 108 nM; against InsR, 6.15 µM; against FAK [1], 46.9 nM; on FAK [2] it was 38 nM.

The values above are taken from patent publication US12590070B2, “Adamantane derivatives as inhibitors of focal adhesion kinase” (SAMJIN PHARMACEUTICAL CO., LTD., priority 2019, dated 2026).
